Assay results: patent publication US6548511B1, “Insecticidal/acaricidal agents” (Sagami Chemical Research Center, priority 1997, dated 2003)

Assays:
diamondback moth larvae = assay: Insecticidal effect on diamondback moth larvae; assay type: in vivo; settings: 500 ppm, wettable powder, cabbage leaf disc soaked, 3rd instar larvae, 4 days after release
Description: A disc of cabbage leaf (6 cm in diameter) was cut out and soaked for 1 minute in a water-diluted solution of the insecticide of the present invention (wettable powder) produced in accordance with the method of Formulation Example 1. After the soaking, the disc was air-dried and set in a plastic cup (7 cm in inner diameter), and 5 diamondback moth larvae of 3rd instar were released therein (one concentration, two repetition). After 4 days of the release of larvae, mortality and agony of the larvae were examined, and insecticidal ratio (%) was calculated by defining the larvae in agony as ½ dead larvae.

common cutworm larvae = assay: Insecticidal effect on common cutworm larvae; assay type: in vivo; settings: 500 ppm, wettable powder, cabbage leaf disc soaked, 3rd instar larvae, 25° C., 5 days
Description: A disc of cabbage leaf (6 cm in diameter) was cut out and soaked for 1 minute in a water-diluted solution of the insecticide of the present invention (wettable powder) produced in accordance with the method of Formulation Example 1. After the soaking, the leaf disc was air-dried and set in a plastic cup (7 cm in inner diameter), and 5 common cutworm larvae of 3rd instar were released therein (one concentration, two repetition). The thus released larvae were kept in a constant temperature chamber at 25° C., mortality and agony of the larvae were examined 5 days thereafter, and insecticidal ratio (%) was calculated by defining the larva in agony as ½ dead larvae.

[1] = system: two-spotted spider mite female imagoes; assay: Acaricidal effect on two-spotted spider mite imagoes; assay type: in vivo; settings: 500 ppm, wettable powder sprayed on kidney bean leaf disc, 24 hours after treatment
Description: A total of 10 two-spotted spider mite female imagoes were released on a disc cut out from a kidney bean leaf (3 cm in diameter). The acaricide of the present invention (wettable powder) produced in accordance with the method of Formulation Example 1 was diluted with water to a predetermined concentration, and the solution (3.5 ml) was applied on the just described cut leaf (one concentration, two repetition) using a rotary sprayer (manufactured by Mizuho Rika). After 24 hours of the treatment, mortality of the imagoes was examined to calculate acaricidal ratio (%).

[2] = system: two-spotted spider mite eggs; assay: Acaricidal effect on two-spotted spider mite eggs; assay type: in vivo; settings: 500 ppm, wettable powder sprayed on kidney bean leaf disc, egg-killing ratio 8 days after treatment
Description: A total of 5 two-spotted spider mite female imagoes were released on a disc cut out from a kidney bean leaf (3 cm in diameter). The thus released female imagoes were allowed to lay eggs on the cut leaf for 20 hours and then removed. The acaricide of the present invention (wettable powder) produced in accordance with the method of Formulation Example 1 was diluted with water to a predetermined concentration, and the solution (3.5 ml) was applied on the just described disc (one concentration, two repetition) using a rotary sprayer (manufactured by Mizuho Rika). After 8 days of the treatment, the number of unhatched eggs and the number of hatched imagoes were examined to calculate egg-killing ratio (%).

[3] = system: brown rice planthopper larvae; assay: Insecticidal effect on brown rice planthopper larvae; assay type: in vivo; settings: 500 ppm, emulsifiable concentrate sprayed on rice seedling, 4th instar larvae, 5 days after treatment
Description: A sprouted rice seedling was set in a glass cylinder (3 cm in inner diameter×17 cm in length), and 5 brown rice planthopper larvae of 4th instar were released therein. A water-diluted solution (0.5 ml) of the insecticide of the present invention (emulsifiable concentrate) produced in accordance with the method of Formulation Example 3 was applied to the just described glass cylinder (one concentration, two repetition) using a sprayer (manufactured by Mizuho Rika). After 5 days of the treatment, mortality and agony of the larvae were examined, and insecticidal ratio (%) was calculated by defining the larva in agony as ½ dead larvae.

[4] = system: adzuki bean weevil imagoes; assay: Insecticidal effect on adzuki bean weevil imagoes; assay type: in vivo; settings: 500 ppm, emulsifiable concentrate sprayed, 25° C., 4 days after treatment
green peach aphid larvae = assay: Insecticidal effect on green peach aphid larvae; assay type: in vivo; settings: 500 ppm, emulsifiable concentrate, radish leaf soaked, 25° C., 4th day after treatment
Description: A petiole part of a radish leaf was put into a screw bottle (capacity: 10 ml) filled with water, and 5 to 6 per one leaf of green peach aphid imagoes were inoculated. After the inoculation, the resulting bottle was put into a glass cylinder (3.5 cm in diameter and 15 cm in height, equipped with a mesh cover), and the green peach aphid imagoes were allowed to propagate in a constant temperature chamber at 25° C. for 3 days. After removal of the green peach aphid imagoes from the radish leaf, the resulting leaf was soaked (about 5 seconds) in a water-diluted solution of the insecticide (emulsifiable concentrate) of the present invention and then returned into the glass cylinder (one concentration, two repetition). The cylinder was kept in the constant temperature chamber of 25° C., and the number of aphid individuals on the radish leaf was examined on the 4th day after the treatment to calculate the insecticidal ratio (%) based on the result.

| SMILES | melting point [°C] | Insecticidal ratio (%) (common cutworm larvae) | also measured |
| --- | --- | --- | --- |
| Cn1c(Nc2cc(C(F)(F)F)ccc2Cl)nc(C(F)(F)F)cc1=O [Compound No. 20, 2-(2-chloro-5-trifluoromethylphenyl)amino-3-methyl-6-trifluoromethyl-4(3H)-pyrimidinone] | – | 100 | Insecticidal ratio (%) (diamondback moth larvae): 100% |
| CCCCn1c(Nc2cc(C(F)(F)F)ccc2Cl)nc(C(F)(F)F)cc1=O [Compound No. 22] | – | – | Acaricidal ratio (%) imagoes [1]: 100%; Acaricidal ratio (%) eggs [2]: 100% |
| Cn1c(Nc2cc(C(F)(F)F)ccc2C(F)(F)F)nc(C(F)(F)F)cc1=O [Compound No. 46, 2-{2,5-bis(trifluoromethyl)phenyl}amino-3-methyl-6-trifluoromethyl-4(3H)-pyrimidinone] | – | 100 | Insecticidal ratio (%) [3]: 100%; Insecticidal ratio (%) (diamondback moth larvae): 100%; Acaricidal ratio (%) imagoes [1]: 100%; Acaricidal ratio (%) eggs [2]: 100%; Insecticidal ratio (%) [4]: 100%; Insecticidal ratio (%) (green peach aphid larvae): 100% |
| CC(C)Cn1c(Nc2cc(C(F)(F)F)ccc2C(F)(F)F)nc(C(F)(F)F)cc1=O [Compound No. 56, 2-{2,5-bis(trifluoromethyl)phenyl}amino-3-isobutyl-6-trifluoromethyl-4(3H)-pyrimidinone] | – | 100 | Insecticidal ratio (%) (diamondback moth larvae): 100%; Acaricidal ratio (%) imagoes [1]: 100%; Acaricidal ratio (%) eggs [2]: 100%; Insecticidal ratio (%) [4]: 100% |
| CC(C)Cn1c(Nc2cc(C(F)(F)F)ccc2Cl)nc(C(F)(F)F)cc1=O [compound 23, 2-(2-chloro-5-trifluoromethylphenyl)amino-3-isobutyl-6-trifluoromethyl-4(3H)-pyrimidinone] | – | 100 | – |
| Cn1c(Nc2cc(C(F)(F)F)cc(C(F)(F)F)c2)nc(C(F)(F)F)cc1=O [compound 69, 2-{3,5-bis(trifluoromethyl)phenyl}amino-3-methyl-6-trifluoromethyl-4(3H)-pyrimidinone] | – | 100 | Insecticidal ratio (%) (diamondback moth larvae): 100% |

The next lines start with results.

| melting point [°C] | SMILES | Insecticidal ratio (%) (common cutworm larvae) | also measured |
| --- | --- | --- | --- |
| 167 to 168 | CCn1c(Nc2cc(Cl)ccc2Cl)nc(C(F)(F)F)cc1=O | – | – |
| 124 | CCn1c(Nc2ccc(C(F)(F)F)cc2C(F)(F)F)nc(C(F)(F)F)c(Cl)c1=O [Compound No. 34, 2-{2,4-bis(trifluoromethyl)phenyl}amino-5-chloro-3-ethyl-6-trifluoromethyl-4(3H)-pyrimidinone] | – | – |
| 173 to 175 | CCn1c(Nc2cc(C(F)(F)F)ccc2C(F)(F)F)nc(C(F)(F)F)cc1=O [Compound No. 47, 2-{2,5-bis(trifluoromethyl)phenyl}amino-3-ethyl-6-trifluoromethyl-4(3H)-pyrimidinone] | – | – |
| 124 to 126 | CCCn1c(Nc2cc(C(F)(F)F)ccc2C(F)(F)F)nc(C(F)(F)F)c(Cl)c1=O [Compound No. 51, 2-{2,5-bis(trifluoromethyl)phenyl}amino-5-chloro-3-propyl-6-trifluoromethyl-4(3H)-pyrimidinone] | – | – |
| 165 to 167 | CCC(C)n1c(Nc2cc(C(F)(F)F)ccc2C(F)(F)F)nc(C(F)(F)F)cc1=O (stereo not shown) [Compound No. 58, 2-{2,5-bis(trifluoromethyl)phenyl}amino-3-sec-butyl-6-trifluoromethyl-4(3H)-pyrimidinone] | – | – |
| 133 to 135 | CCC(C)n1c(Nc2cc(C(F)(F)F)ccc2C(F)(F)F)nc(C(F)(F)F)c(Cl)c1=O (stereo not shown) [Compound No. 59, 2-{2,5-bis(trifluoromethyl)phenyl}amino-3-sec-butyl-5-chloro-6-trifluoromethyl-4(3H)-pyrimidinone] | – | – |
| 154 to 156 | O=c1cc(C(F)(F)F)nc(Nc2cc(C(F)(F)F)ccc2C(F)(F)F)n1C1CCCCC1 [Compound No. 64, 2-{2,5-bis(trifluoromethyl)phenyl}amino-3-cyclohexyl-6-trifluoromethyl-4(3H)-pyrimidinone] | – | – |
| 181 to 183 | O=c1c(Cl)c(C(F)(F)F)nc(Nc2cc(C(F)(F)F)ccc2C(F)(F)F)n1C1CCCCC1 [Compound No. 65, 2-{2,5-bis(trifluoromethyl)phenyl}amino-5-chloro-3-cyclohexyl-6-trifluoromethyl-4(3H)-pyrimidinone] | – | – |
| 116 to 118 | C=CCn1c(Nc2cc(C(F)(F)F)ccc2C(F)(F)F)nc(C(F)(F)F)cc1=O [Compound No. 66, 3-allyl-2-{2,5-bis(trifluoromethyl)phenyl}amino-6-trifluoromethyl-4(3H)pyrimidinone] | – | – |
